{"source": "paper PMC10108347", "about": "“Heterobifunctional Ligase Recruiters Enable pan-Degradation of Inhibitor of Apoptosis Proteins” (Journal of Medicinal Chemistry, 2023)", "key": {"[1]": {"system": "IAPs (cIAP1, cIAP2, XIAP)", "assay": "Immunoblotting of IAPs in MM.1S cells, overall degradation profile, time course and washout", "format": "cell-based", "settings": "for IAP degradation profile (in words): 16 h, western blot, concentration (10 nM to 1 μM)", "protocol": "Next, we examined the persistence of IAP degradation in MM.1S cells after a single exposure to 1 μM of 9 and subsequent removal of the compound. […] The reliance on CRL2^VHL was assessed with a neddylation inhibitor MLN4924, which blocks the activity of CRLs (Figure S13A)."}, "[2]": {"system": "RPMI-8826", "assay": "CellTiter-Glo cell viability assay, RPMI-8826", "format": "cell-based", "settings": "read-out: RPMI-8826"}, "[3]": {"system": "HEL", "assay": "CellTiter-Glo cell viability assay, HEL", "format": "cell-based", "settings": "Homo sapiens, read-out: HEL"}, "[4]": {"system": "K562", "assay": "CellTiter-Glo cell viability assay, K562", "format": "cell-based", "settings": "Homo sapiens"}, "[5]": {"system": "MOLM13", "assay": "CellTiter-Glo cell viability assay, MOLM13", "format": "cell-based", "settings": "Homo sapiens"}, "[6]": {"system": "DB", "assay": "CellTiter-Glo cell viability assay, DB", "format": "cell-based", "settings": "Homo sapiens, read-out: DB"}, "[7]": {"system": "SUDHL6", "assay": "CellTiter-Glo cell viability assay, SUDHL6", "format": "cell-based", "settings": "Homo sapiens"}, "[8]": {"system": "MM.1S cells proteome", "assay": "diaPASEF quantitative proteomics in MM.1S cells: proteome-wide degradation selectivity (other proteins)", "format": "cell-based, human", "settings": "for Precursor intensity (DIA-NN), CLPX precursor AAAAADLANR2: CLPX_HUMAN (O76031), ATP-dependent Clp protease ATP-binding subunit clpX-like, mitochondrial; for Precursor intensity (DIA-NN), SAMD1 precursor AAAAAATAPPSPGPAQPGPR2: SAMD1_HUMAN (Q6SPF0), Atherin; for Precursor intensity (DIA-NN), ZFP91 precursor AAAAAAAAAVSR2: ZFP91_HUMAN (Q96JP5), E3 ubiquitin-protein ligase ZFP91", "protocol": "To analyze the proteome-wide degradation selectivity of hetero-PROTACs 9, 25, and 27, a diaPASEF-based mass spectrometry approach was employed.[54] MM.1S cells were treated with 100 nM PROTACs for 3 h. […] Accordingly, global proteomic plots show the mathematically imputed levels of IAP proteins in treatment groups if the corresponding IAP was detected in the control treatment (see also Experimental Section).\nMM1s cells were treated with DMSO or 0.1 μM of compound for 3 h. The cells were harvested by centrifugation and washed with phosphate-buffered saline before snap-freezing in liquid nitrogen. The cells were lysed by addition of lysis buffer (8 M urea, 50 mM NaCl, 50 mM 4-(2-hydroxyethyl)-1-piperazine-ethanesulfonic acid (EPPS) pH 8.5, protease, and phosphatase inhibitors) and homogenization by bead beating (BioSpec) for three repeats of 30 s at 2400. Bradford assay was used to determine the final protein concentration in the clarified cell lysate. 50 μg of protein for each sample was reduced, alkylated, and precipitated using methanol/chloroform as previously described,[64] and the resulting washed precipitated protein was allowed to air dry. The precipitated protein was resuspended in 4 M urea, 50 mM HEPES pH 7.4, followed by dilution to 1 M urea with the addition of 200 mM EPPS, pH 8. […] The LysC digestion was diluted to 0.5 M urea with 200 mM EPPS pH 8, followed by digestion with trypsin (1:50; enzyme/protein) for 6 h at 37 °C. Sample digests were acidified with formic acid to a pH of 2–3 prior to desalting using C18 solid-phase extraction plates (SOLA, Thermo Fisher Scientific). Desalted peptides were dried in a vacuum centrifuge and reconstituted in 0.1% formic acid for LC–MS analysis.\nData were collected using a TimsTOF Pro2 (Bruker Daltonics, Bremen, Germany) coupled to a nanoElute LC pump (Bruker Daltonics, Bremen, Germany) via a CaptiveSpray nanoelectrospray source. […] Peptides were separated using a 50 min gradient of 2–30% buffer B (acetonitrile in 0.1% formic acid) with a flow rate of 250 nL/min and column temperature maintained at 50 °C.\nData-Dependent Acquisition (DDA) was performed in the Parallel Accumulation-Serial Fragmentation (PASEF) mode to determine effective ion mobility windows for downstream diaPASEF data collection.[54] The diaPASEF parameters included 100% duty cycle using accumulation and ramp times of 50 ms each, 1 TIMS-MS scan, and 10 PASEF ramps per acquisition cycle. The TIMS-MS survey scan was acquired between 100–1700 m/z and 1/K0 of 0.7–1.3 V × s/cm^2. Precursors with 1–5 charges were selected, and those that reached an intensity threshold of 20,000 arbitrary units were actively excluded for 0.4 min. The quadrupole isolation width was set to 2 m/z for m/z < 700 and 3 m/z for m/z > 800, with the m/z between 700 and 800 m/z being interpolated linearly. […] To perform diaPASEF, the precursor distribution in the DDA m/z-ion mobility plane was used to design an acquisition scheme for DIA data collection, which included two windows in each 50 ms diaPASEF scan. Data was acquired using 16 of these 25 Da precursor double window scans (creating 32 windows), which covered the diagonal scan line for doubly and triply charged precursors, with singly charged precursors able to be excluded by their position in the m/z-ion mobility plane. These precursor isolation windows were defined between 400–1200 m/z and 1/K0 of 0.7–1.3 V × s/cm^2.\nThe diaPASEF raw file processing and controlling peptide and protein level false discovery rates, assembling proteins from peptides, and protein quantification from peptides were performed using library-free analysis in DIA-NN 1.8.[65] The library-free mode performs an in silico digestion of a given protein sequence database alongside deep learning-based predictions to extract the DIA precursor data into a collection of MS^2 spectra."}, "[9]": {"settings": "precursor charge 2, per-replicate values (rep1, rep2), listed as SAB141"}, "[10]": {"settings": "MM.1S cells, 0.1 μM, 3 h, log2 fold change compound vs CTRLs (limma)"}, "[11]": {"settings": "RL4_HUMAN (P36578), 60S ribosomal protein L4, precursor charge 1, per-replicate values (rep1, rep2)"}, "[12]": {"settings": "SI csv, head prints only the cell line, no quantity or unit, values parallel Table 1/S8"}, "[13]": {"settings": "precursor charge 2, per-replicate values (rep1, rep2)"}}, "note": "Values joined by “and” are separate entries in the source; they are usually repeats but may differ in a detail not shown here. Equal entries are not always repeated. Where two headings read alike, the source gives them in different places.", "data": [{"smiles": "CN[C@@H](C)C(=O)N[C@H](C(=O)N1C[C@@H](Oc2cccc(OCCOCCCCCCOCCCCCCNc3cccc4c3C(=O)N(C3CCC(=O)NC3=O)C4=O)c2)C[C@H]1C(=O)N[C@@H]1CCCc2ccccc21)C1CCCCC1", "note": "(stereo partly drawn) [PROTAC 25, (2S,4S)-1-((S)-2-Cyclohexyl-2-((S)-2-(methylamino)propanamido)acetyl)-4-(3-(2-((6-((6-((2-(2,6-dioxopiperidin-3-yl)-1,3-dioxoisoindolin-4-yl)amino)hexyl)oxy)hexyl)oxy)ethoxy)phenoxy)-N-((R)-1,2,3,4-tetrahydronaphthalen-1-yl)pyrrolidine-2-carboxamide]", "values": [{"measurement": "time to complete degradation of cIAP1, cIAP2 and XIAP", "setting": "[1]; 0.1 μM, time course", "value": "≤ 3", "unit": "h"}, {"measurement": "IAP degradation profile (in words)", "setting": "[1]", "value": "pronounced pan-IAP depletion and Complete cIAP1 and XIAP depletion occurred already at 10 nM and 0.1 μM concentration was needed for the complete depletion of all IAPs"}, {"measurement": "IC50", "setting": "[2]", "value": 1520, "unit": "nM"}, {"measurement": "IC50", "setting": "[3]; HEL", "value": 300, "unit": "nM"}, {"measurement": "IC50", "setting": "[4]; K562, read-out: K562", "value": 380, "unit": "nM"}, {"measurement": "IC50", "setting": "[5]; MOLM-13, read-out: MOLM13", "value": 52, "unit": "nM"}, {"measurement": "IC50", "setting": "[6]; DB", "value": 160, "unit": "nM"}, {"measurement": "IC50", "setting": "[7]; SU-DHL-6, read-out: SUDHL6", "value": 14, "unit": "nM"}, {"measurement": "Precursor intensity (DIA-NN), CLPX precursor AAAAADLANR2", "setting": "[8]; [9]", "value": "7987.33 and 21462.9"}, {"measurement": "logFC COX5A", "setting": "[8]; [10]", "value": -0.5474}, {"measurement": "logFC LMAN2", "setting": "[8]; [10]", "value": -0.1147}, {"measurement": "logFC TOP1", "setting": "[8]; [10]", "value": 0.3058}, {"measurement": "Precursor intensity (DIA-NN), RPL4 precursor […]1", "setting": "[8]; [11]", "value": 321.394}, {"measurement": "Precursor intensity (DIA-NN), RPL4 precursor […]2", "setting": "[8]; RL4_HUMAN (P36578), 60S ribosomal protein L4, precursor charge 2, per-replicate values (rep1, rep2), listed as SAB141", "value": "467864 and 464908"}, {"measurement": "Precursor intensity (DIA-NN), SAMD1 precursor AAAAAATAPPSPGPAQPGPR2", "setting": "[8]; [9]", "value": "14133.9 and 10400.6"}, {"measurement": "Precursor intensity (DIA-NN), ZFP91 precursor AAAAAAAAAVSR2", "setting": "[8]; [9]", "value": "72214.7 and 61349"}]}, {"smiles": "CN[C@@H](C)C(=O)N[C@@H](C(=O)N1CCC[C@H]1C(=O)N[C@@H]1c2ccccc2C[C@@H]1OCC#CC#CCO[C@H]1Cc2ccccc2[C@H]1NC(=O)[C@@H]1CCCN1C(=O)[C@H](NC(=O)[C@H](C)NC)C1CCCCC1)C1CCCCC1", "note": "[AZD5582, reference compound]", "values": [{"measurement": "IAP degradation profile (in words)", "setting": "[1]", "value": "potent cIAP autodegradation"}, {"measurement": "IC50", "setting": "[2]; [12]", "value": 470, "unit": "nM"}, {"measurement": "IC50", "setting": "[3]; [12]", "value": 64, "unit": "nM"}, {"measurement": "IC50", "setting": "[4]; SI csv, head prints only the cell line, no quantity or unit, values parallel Table 1/S8, read-out: K562", "value": 19, "unit": "nM"}, {"measurement": "IC50", "setting": "[5]; MOLM-13, SI csv, head prints only the cell line, no quantity or unit, values parallel Table 1/S8, read-out: MOLM13", "value": 2, "unit": "nM"}, {"measurement": "IC50", "setting": "[6]; [12]", "value": 73, "unit": "nM"}, {"measurement": "IC50", "setting": "[7]; SU-DHL-6, SI csv, head prints only the cell line, no quantity or unit, values parallel Table 1/S8, read-out: SUDHL6", "value": 1.5, "unit": "nM"}, {"measurement": "Precursor intensity (DIA-NN), CLPX precursor AAAAADLANR2", "setting": "[8]; [13]", "value": "16915 and 25995.2"}, {"measurement": "logFC ATP5MD", "setting": "[8]; [10]", "value": -0.4905}, {"measurement": "logFC CD44", "setting": "[8]; [10]", "value": -0.09493}, {"measurement": "logFC EDF1", "setting": "[8]; [10]", "value": -0.1747}, {"measurement": "logFC GOT2", "setting": "[8]; [10]", "value": -0.1164}, {"measurement": "logFC RRP15", "setting": "[8]; [10]", "value": -0.3053}, {"measurement": "Precursor intensity (DIA-NN), RPL4 precursor AAAAAAALQAK1", "setting": "[8]; [11]", "value": 331.845}, {"measurement": "Precursor intensity (DIA-NN), RPL4 precursor AAAAAAALQAK2", "setting": "[8]; RL4_HUMAN (P36578), 60S ribosomal protein L4, precursor charge 2, per-replicate values (rep1, rep2)", "value": "447305 and 464651"}, {"measurement": "Precursor intensity (DIA-NN), SAMD1 precursor AAAAAATAPPSPGPAQPGPR2", "setting": "[8]; [13]", "value": "15006.1 and 13237.9"}, {"measurement": "Precursor intensity (DIA-NN), ZFP91 precursor AAAAAAAAAVSR2", "setting": "[8]; [13]", "value": "67729.2 and 74323"}]}, {"smiles": "CN[C@@H](C)C(=O)N[C@H](C(=O)N1C[C@@H](Oc2cccc(OCCCCCCOCCCCCCOCCCCCCNc3cccc4c3C(=O)N(C3CCC(=O)NC3=O)C4=O)c2)C[C@H]1C(=O)N[C@@H]1CCCc2ccccc21)C1CCCCC1", "note": "(stereo partly drawn) [PROTAC 27, (2S,4S)-1-((S)-2-Cyclohexyl-2-((S)-2-(methylamino)propanamido)acetyl)-4-(3-((6-((6-((6-((2-(2,6-dioxopiperidin-3-yl)-1,3-dioxoisoindolin-4-yl)amino)hexyl)oxy)hexyl)oxy)hexyl)oxy)phenoxy)-N-((R)-1,2,3,4-tetrahydronaphthalen-1-yl)pyrrolidine-2-carboxamide]", "values": [{"measurement": "IAP degradation profile (in words)", "setting": "[1]", "value": "isoform-selective XIAP degradation"}, {"measurement": "logFC COX6C", "setting": "[8]; [10]", "value": -0.5143}, {"measurement": "logFC EIF4B", "setting": "[8]; [10]", "value": -0.1592}, {"measurement": "logFC HNRNPA2B1", "setting": "[8]; [10]", "value": -0.1781}, {"measurement": "logFC POTEJ", "setting": "[8]; [10]", "value": -0.3899}, {"measurement": "logFC TPM3", "setting": "[8]; [10]", "value": -0.214}]}]}
